# In patent US20230167088A1, “1-PYRAZINYLPYRAZOLYL-3-OXYALKYL ACIDS AND THEIR DERIVATIVES, AND THEIR USE FOR CONTROL OF UNDESIRED PLANT GROWTH” (BAYER AKTIENGESELLSCHAFT, priority 2020, published 2023):
# Tests used:
# ECHCG [1] = test: Herbicidal pre-emergence action 2a (greenhouse pots, visual scoring); assay type: in vivo, Echinochloa crus-galli; settings: dosage 320 g/ha, visual scoring after about 3 weeks
# From the text: (§1) [table] a) Seeds of monocotyledonous and dicotyledonous weed plants and crop plants are placed in plastic or organic plant pots and covered with soil. The compounds of the invention, formulated in the form of wettable powders (WP) or as emulsion concentrates (EC), are then applied onto the surface of the covering soil as aqueous suspension or emulsion with addition of 0.5% additive at a water application rate of 600 1/ha (converted). After the treatment, the pots are placed in a greenhouse and kept under good growth conditions for the trial plants. After about 3 weeks, the effect of the preparations is scored visually in comparison with untreated controls as percentages. For example, 100% activity=the plants have died, 0% activity=like control plants. Tables B1 to B15 below show the effects of selected compounds of the general formula (I) according to Tables 1 and 2 on various harmful plants and an application rate corresponding to 320 g/ha and/or 80 g/ha, which were obtained by the experimental procedure mentioned above.
# MATIN [2] = test: Herbicidal post-emergence action 1b (twin sowing, 1280 g/ha); assay type: in vivo, Matricaria inodora; settings: dosage 1280 g/ha, visual rating about 3 weeks after treatment
# Method: (§2) [table] b) Seeds of mono- and dicotyledonous weed plants are placed in plastic pots in sandy loam soil (twin sowing with one species each of mono- or dicotyledonous weed plants per pot), covered with soil and cultivated in a greenhouse under controlled growth conditions. 2 to 3 weeks after sowing, the test plants are treated at the one-leaf stage. The compounds of the invention, formulated in the form of wettable powders (WP) or as emulsion concentrates (EC), are applied to the green parts of the plants as aqueous suspension or emulsion with addition of 0.5% additive at a water application rate equivalent to 600 litres per hectare. After the test plants have been kept in the greenhouse under optimum growth conditions for about 3 weeks, the activity of the preparations is rated visually in comparison to untreated controls. For example, 100% activity=the plants have died, 0% activity=like control plants. Tables A16 to A21 below show the effects of selected compounds of the general formula (I) according to Tables 1 and 2 on various harmful plants and at an application rate corresponding to 1280 g/ha, which were obtained by the experimental procedure mentioned above.
# POAAN [3] = test: Herbicidal pre-emergence action 2b (doubly sown, 1280 g/ha); assay type: in vivo, Poa annua; settings: doubly sown pots, dosage 1280 g/ha, visual scoring after about 3 weeks
# From the text: (§3) [table] b) Seeds of mono- and dicotyledonous weed plants are placed in plastic pots in sandy loam soil (doubly sown with one species each of mono- or dicotyledonous weed plants per pot) and covered with soil. The compounds of the invention, formulated in the form of wettable powders (WP) or as emulsion concentrates (EC), are then applied onto the surface of the covering soil as aqueous suspension or emulsion with addition of 0.5% additive at a water application rate equivalent to 600 litres per hectare. After the treatment, the pots are placed in a greenhouse and kept under good growth conditions for the trial plants. After about 3 weeks, the effect of the preparations is scored visually in comparison with untreated controls as percentages. For example, 100% activity=the plants have died, 0% activity=like control plants. Tables B16 to B21 below show the effects of selected compounds of the general formula (I) according to Tables 1 and 2 on various harmful plants and at an application rate corresponding to 1280 g/ha, which were obtained by the experimental procedure mentioned above.
# ECHCG [4] = test: as above; assay type: in vivo, Echinochloa crus-galli; settings: doubly sown pots, dosage 1280 g/ha, visual scoring after about 3 weeks
# From the text: as §3
# ECHCG [5] = test: Herbicidal post-emergence action 1b (twin sowing, 1280 g/ha); assay type: in vivo, Echinochloa crus-galli; settings: dosage 1280 g/ha, visual rating about 3 weeks after treatment
# Method: as §2
# AMARE [6] = test: Herbicidal pre-emergence action 2b (doubly sown, 1280 g/ha); assay type: in vivo, Amaranthus retroflexus; settings: doubly sown pots, dosage 1280 g/ha, visual scoring after about 3 weeks
# From the text: as §3
# MATIN [7] = test: as above; assay type: in vivo, Matricaria inodora; settings: doubly sown pots, dosage 1280 g/ha, visual scoring after about 3 weeks
# From the text: as §3
# STEME [8] = test: as above; assay type: in vivo, Stellaria media; settings: doubly sown pots, dosage 1280 g/ha, visual scoring after about 3 weeks
# From the text: as §3
# VERPE [9] = test: Herbicidal pre-emergence action 2a (greenhouse pots, visual scoring); assay type: in vivo, Veronica persica; settings: dosage 320 g/ha, visual scoring after about 3 weeks vs untreated controls
# From the text: as §1
# AMARE [10] = test: Herbicidal post-emergence action 1a (greenhouse pots, visual rating); assay type: in vivo, Amaranthus retroflexus; settings: visual rating about 3 weeks after treatment
# Method: (§4) [table] a) Seeds of monocotyledonous and dicotyledonous weeds and crop plants are placed in sandy loam in plastic or organic plant pots, covered with soil and cultivated in a greenhouse under controlled growth conditions. 2 to 3 weeks after sowing, the test plants are treated at the one-leaf stage. The compounds of the invention, formulated in the form of wettable powders (WP) or as emulsion concentrates (EC), are then sprayed onto the green parts of the plants as aqueous suspension or emulsion with addition of 0.5% additive at a water application rate of 600 1/ha (converted). After the test plants have been kept in the greenhouse under optimum growth conditions for about 3 weeks, the activity of the preparations is rated visually in comparison to untreated controls. For example, 100% activity=the plants have died, 0% activity=like control plants. Tables A1 to A15 below show the effects of selected compounds of the general formula (I) according to Tables 1 and 2 on various harmful plants and an application rate corresponding to 320 g/ha and/or 80 g/ha, which were obtained by the experimental procedure mentioned above.
# SETVI = test: Herbicidal pre-emergence action 2a (greenhouse pots, visual scoring); assay type: in vivo, Setaria viridis; settings: dosage 320 g/ha, visual scoring after about 3 weeks vs untreated controls
# From the text: as §1
# PHBPU = test: Herbicidal post-emergence action 1a (greenhouse pots, visual rating); assay type: in vivo, Pharbitis purpurea; settings: dosage 320 g/ha, visual rating about 3 weeks after treatment
# Method: as §4
# VERPE [11] = test: as above; assay type: in vivo, Veronica persica; settings: dosage 320 g/ha, visual rating about 3 weeks after treatment
# Method: as §4
# DIGSA = test: Herbicidal pre-emergence action 2a (greenhouse pots, visual scoring); assay type: in vivo, Digitaria sanguinalis; settings: dosage 320 g/ha, visual scoring after about 3 weeks
# From the text: as §1
# STEME [12] = test: Herbicidal post-emergence action 1b (twin sowing, 1280 g/ha); assay type: in vivo, Stellaria media; settings: dosage 1280 g/ha, visual rating about 3 weeks after treatment
# Method: as §2
# MATIN [13] = test: Herbicidal pre-emergence action 2a (greenhouse pots, visual scoring); assay type: in vivo, Matricaria inodora; settings: dosage 320 g/ha, visual scoring after about 3 weeks vs untreated controls
# From the text: as §1
# AVEFA = test: Herbicidal post-emergence action 1a (greenhouse pots, visual rating); assay type: in vivo, Avena fatua; settings: Dosage 320 g/ha; rated visually about 3 weeks after treatment; 100% = plants have died, 0% = like control plants
# Method: as §4
# AMARE [14] = test: Herbicidal pre-emergence action 2a (greenhouse pots, visual scoring); assay type: in vivo, Amaranthus retroflexus; settings: dosage 320 g/ha, visual scoring after about 3 weeks vs untreated controls
# From the text: as §1
# ALOMY [15] = test: Herbicidal post-emergence action 1a (greenhouse pots, visual rating); assay type: in vivo, Alopecurus myosuroides; settings: Dosage 320 g/ha; rated visually about 3 weeks after treatment; 100% = plants have died, 0% = like control plants
# Method: as §4
# VIOTR [16] = test: Herbicidal pre-emergence action 2a (greenhouse pots, visual scoring); assay type: in vivo, Viola tricolor; settings: dosage 320 g/ha, visual scoring after about 3 weeks vs untreated controls
# From the text: as §1
# LOLRI [17] = test: Herbicidal post-emergence action 1a (greenhouse pots, visual rating); assay type: in vivo, Lolium rigidum; settings: Dosage 320 g/ha; rated visually about 3 weeks after treatment; 100% = plants have died, 0% = like control plants
# Method: as §4
# ALOMY [18] = test: Herbicidal pre-emergence action 2a (greenhouse pots, visual scoring); assay type: in vivo, Alopecurus myosuroides; settings: dosage 320 g/ha, visual scoring after about 3 weeks
# From the text: as §1
# VIOTR [19] = test: Herbicidal post-emergence action 1a (greenhouse pots, visual rating); assay type: in vivo, Viola tricolor; settings: visual rating about 3 weeks after treatment
# Method: as §4
# POAAN [20] = test: Herbicidal post-emergence action 1b (twin sowing, 1280 g/ha); assay type: in vivo, Poa annua; settings: dosage 1280 g/ha, visual rating about 3 weeks after treatment
# Method: as §2
# LOLRI [21] = test: Herbicidal pre-emergence action 2a (greenhouse pots, visual scoring); assay type: in vivo, Lolium rigidum; settings: dosage 320 g/ha, visual scoring after about 3 weeks vs untreated controls
# From the text: as §1
smiles,measurement,setting,value
C[C@@H](Oc1nn(-c2cnccn2)c(-c2cncc(F)c2)c1Cl)C(=O)O [Example 1-97],Pre-emergence action against ECHCG in %,ECHCG [1],100%
COC(=O)COc1nn(-c2cnccn2)c(-c2ccnc(F)c2)c1Cl [Example I-06],Post-emergence action at 1280 g/ha against MATIN in %,MATIN [2],90%
same,Pre-emergence action at 1280 g/ha against POAAN in %,POAAN [3],100%
same,Pre-emergence action at 1280 g/ha against ECHCG in %,ECHCG [4],100%
same,Post-emergence action at 1280 g/ha against ECHCG in %,ECHCG [5],100%
same,Pre-emergence action at 1280 g/ha against AMARE in %,AMARE [6],90%
same,Pre-emergence action at 1280 g/ha against MATIN in %,MATIN [7],90%
same,Pre-emergence action at 1280 g/ha against STEME in %,STEME [8],100%
COC(=O)[C@H](C)Oc1nn(-c2cnccn2)c(-c2cccc(F)c2)c1Br [Example I-21],Pre-emergence action against VERPE in %,VERPE [9],90%
same,Post-emergence action against AMARE in %,AMARE [10]; dosage 80 g/ha,80%
same,Post-emergence action against AMARE in %,AMARE [10]; dosage 320 g/ha,90%
same,Pre-emergence action against SETVI in %,SETVI,90%
same,Post-emergence action at 1280 g/ha against MATIN in %,MATIN [2],90%
same,Post-emergence action against PHBPU in %,PHBPU,80%
same,Post-emergence action against VERPE in %,VERPE [11],80%
same,Pre-emergence action against DIGSA in %,DIGSA,90%
same,Pre-emergence action at 1280 g/ha against POAAN in %,POAAN [3],100%
same,Post-emergence action at 1280 g/ha against STEME in %,STEME [12],100%
same,Pre-emergence action against MATIN in %,MATIN [13],80%
same,Post-emergence action against AVEFA in %,AVEFA,80%
same,Pre-emergence action at 1280 g/ha against ECHCG in %,ECHCG [4],100%
same,Pre-emergence action against AMARE in %,AMARE [14],100%
same,Post-emergence action against ALOMY in %,ALOMY [15],90%
same,Pre-emergence action at 1280 g/ha against AMARE in %,AMARE [6],100%
same,Pre-emergence action against VIOTR in %,VIOTR [16],100%
same,Pre-emergence action at 1280 g/ha against MATIN in %,MATIN [7],100%
same,Pre-emergence action at 1280 g/ha against STEME in %,STEME [8],100%
same,Post-emergence action against LOLRI in %,LOLRI [17],90%
same,Pre-emergence action against ALOMY in %,ALOMY [18],80%
same,Post-emergence action against VIOTR in %,VIOTR [19]; dosage 80 g/ha,80%
same,Post-emergence action against VIOTR in %,VIOTR [19]; dosage 320 g/ha,90%
same,Post-emergence action at 1280 g/ha against POAAN in %,POAAN [20],100%
same,Pre-emergence action against LOLRI in %,LOLRI [21],90%
